Columns and labels:
HSV-1 [1] = assay: Virus yield reduction assay, HSV-1; format: cell-based, herpes simplex virus 1; settings: Hep-2 cells, — = less than 90% inhibition
HSV-1 [2] = assay: Plaque reduction assay, HSV-1 in Hep-2 cells; settings: for SI HSV-1, ratio CC50/EC50 / inhibition of HSV-1-induced plaque formation: Hep-2 cells; for EC50: Human alphaherpesvirus 1, HEp-2, read-out: EC50 HSV-1; for inhibition of HSV-1-induced plaque formation: inhibition achievable
Procedure: Confluent monolayers of Hep-2 cells, seeded in a 24-well plate, were infected with HSV-1 at a density of 60–80 plaque-forming units (PFU) per well and treated with media (pre-warmed DMEM containing 2% FBS, 0.8% low-melting agarose) mixed with or without the serially diluted tested compounds for the periods indicated following different procedures. The cells were incubated at 37°C until plaques appeared, followed by fixing with 10% formaldehyde and staining with 0.5% crystal violet. The plaques were counted by visual examination. The ratio of the number of plaques in the treated group to that in the untreated control was calculated.
A plaque reduction assay was performed to measure the inhibitory effects of the test compounds against HSV-1 infection.

[3] = Cytotoxicity, MTT method, Hep-2 cells; format: cell-based; settings: human
Procedure: (§1) The 50% cell cytotoxic concentrations (CC50s) of compounds were calculated using SPSS software. SI were calculated from the ratio of CC50: EC50.

H1N1 [4] = assay: Virus yield reduction assay, H1N1; format: cell-based, influenza virus A/human/Hubei/86/2009 (H1N1); settings: MDCK cells, — = less than 90% inhibition
Procedure: Virus yield reduction assays were also carried out to evaluate further the protective effects of the tested compounds.
The virus suspension, serially diluted 10-fold with DMEM containing 2% FBS, was inoculated to cells in a 96-well plate. After 1 h incubation at 37°C in 5% CO2, unbinding virus was washed out and DMEM maintenance medium supplemented with 2% FBS was added to the cells. After 2 days, the infected cells were monitored for cytopathic effects (CPEs). The virus titer was calculated by the Reed–Muench method.

[5] = Cytotoxicity, MTT method, MDCK cells; format: cell-based, canine; settings: dog, uninfected MDCK cells, host cells of H1N1: MDCK
Procedure: as §1

H1N1 [6] = assay: Inhibition of H1N1-induced CPE in MDCK cells; format: cell-based, influenza virus A/human/Hubei/86/2009 (H1N1); settings: MDCK cells; for EC50: Influenza A virus, H1N1, read-out: EC50 H1N1
[7] = Cytotoxicity, MTT method, HeLa cells; format: cell-based; settings: human
Procedure: as §1

[8] = Cytotoxicity, ATPLite luminescence-based assay, HeLa cells; format: cell-based; settings: human
Description: (§2) The ATPLite assay may be more sensitive to cytotoxicity than the MTT method. For RD and Hep-2 cells, similar results were obtained, and for HeLa and MDCK cells, the values of CC50 from the ATPLite assay were smaller than those from MTT assays (Tables 1, 2 and 3).

EV71 [9] = assay: microbe, parasite or virus in culture; settings: Enterovirus A, EV71, RD, 48 h, read-out: EC50, compound concentration required to achieve 50% protection from virus-induced cytopathogenicity
Procedure: (§3) Cell viability was assessed by an MTT assay, which functions based on the reduction of a MTT into formazan dye by active mitochondria. The cells were treated with 100 μL of MTT (1 mg/mL, Sigma) and incubated at 37°C for 4 h. The reaction was blocked by DMSO and measured in a microplate reader (Bio-Tek Instruments) at 492 nm. The untreated control was arbitrarily set as 100%.
(§4) Confluent cell monolayers in 96-well dishes were infected with 100 TCID50 of corresponding virus dilution mixed with serial dilutions of tested compounds for 1 h at 37°C. Inocula were aspirated and the cells were then incubated with various concentrations of DMEM/tested compounds at 37°C, 5% CO2 for 48 h. CPE were observed microscopically and the viability of the cells was determined using MTT assays. […] The concentrations required for the tested compounds to achieve 50% protection of cells from virus-induced CPE were determined.

ADV-7 [10] = assay: Virus yield reduction assay, ADV-7; format: cell-based, adenovirus 7; settings: Human mastadenovirus B; HeLa cells; read-out: EC90 ADV-7, concentration required to inhibit 90% virus yield
EV71 [11] = assay: Release analysis, EV71 from RD cells; format: cell-based, Enterovirus 71; settings: 80 μM pimprinethine, 40 μM WS-30581 A or B; 12 h p.i.
CVB3 [12] = assay: Inhibition of CVB3-induced CPE in Hep-2 cells; settings: for EC50: Enterovirus B, CVB3, HEp-2, 48 h, read-out: EC50 CVB3; for SI CVB3, ratio CC50/EC50: Hep-2 cells
Procedure: as §3, §4

[13] = Cytotoxicity, MTT method, uninfected RD cells; format: cell-based; settings: human
Procedure: as §1

[14] = Cytotoxicity, ATPLite luminescence-based assay, MDCK cells; format: cell-based, canine; settings: dog
Description: as §2

EV71 [15] = assay: Effective stage analysis, EV71 in RD cells; format: cell-based, Enterovirus 71; settings: 48 h; for virus titer reduction vs untreated cells: 80 μM, added post infection, EV71 100 TCID50; for viability at 80 µM: Enterovirus A, RD, added post infection (therapeutic), EV71 100 TCID50, read-out: viability rates of the infected cells
EV71 [16] = assay: Virucidal activity against EV71; format: cell-based, Enterovirus 71; settings: 80 μM pimprinethine, 40 μM WS-30581 A or 40 μM WS-30581 B; 24 h at 4°C; 10^3 TCID50
EV71 [17] = settings: EV71, RD cells
Procedure: as §3, §4

[18] = Cytotoxicity, ATPLite luminescence-based assay, RD cells; format: cell-based; settings: human
Description: as §2

EV71 [19] = assay: Dependence of anti-EV71 activity on virus inoculum (cell viability, MTT) in RD cells; format: cell-based, Enterovirus 71; settings: virus concentration above 10^4 TCID50
[20] = Cytotoxicity, ATPLite luminescence-based assay, Hep-2 cells; format: cell-based; settings: human
Description: as §2

EV71 [21] = assay: Progeny virus yield reduction, EV71 in RD cells; format: cell-based, Enterovirus 71; settings: for reduction in progeny virus titers relative to virus control: 80 μM; for EC90: Enterovirus A, EV71, RD cells, progeny viral yield, read-out: EC90, compound concentration required to achieve 90% virus yield reduction
EV71 [22] = assay: Adsorption analysis, EV71 on RD cells; format: cell-based, Enterovirus 71; settings: 160 μM pimprinethine, 80 μM WS-30581 A, 80 μM WS-30581 B; EV71 10^4 TCID50; 2 h adsorption
CVB3 [23] = assay: Virus yield reduction assay, CVB3; format: cell-based, Coxsackievirus B3; settings: Enterovirus B, CVB3; Hep-2 cells; — = less than 90% inhibition; read-out: EC90 CVB3, concentration required to inhibit 90% virus yield
ADV-7 [24] = assay: Inhibition of ADV-7-induced CPE in HeLa cells; settings: for SI ADV-7, ratio CC50/EC50: HeLa cells; for EC50: Human mastadenovirus B, HeLa, 48 h, read-out: EC50 ADV-7
Procedure: as §3, §4

CVB3 [25] = assay: Antiviral activity of MAO inhibitors against CVB3; format: cell-based, Coxsackievirus B3
EV71 [26] = assay: Antiviral activity of MAO inhibitors against EV71; format: cell-based, Enterovirus 71
[27] = 100 TCID50, 48 h, CPE, — = less than 50% inhibition
[28] = uninfected HeLa cells, host cells of ADV-7: HeLa, MTT, 48 h, read-out: CC50 (ADV-7)
[29] = RD cells, MTT, 48 h, mean ± SD of three experiments, read-out: CC50, compound concentration required to reduce cell viability by 50%
[30] = 100 TCID50 EV71, RD cells, 10 h
[31] = uninfected Hep-2 cells, host cells of CVB3: Hep-2, MTT, 48 h, read-out: CC50 (CVB3)

## Nc1nc2c(ncn2COCCO)c(=O)[nH]1 [Acyclovir, reference compound]
HSV-1 [1]; Human alphaherpesvirus 1, read-out: EC90 HSV-1, concentration required to inhibit 90% virus yield
  EC90: 24 ± 5 µM
HSV-1 [2]
  SI HSV-1, ratio CC50/EC50: >181
  EC50: 11 ± 1 µM
[3]
  CC50 at 48 h: > 2000 µM

## NC12CC3CC(CC(C3)C1)C2 [Amantadine, reference compound]
H1N1 [4]; Influenza A virus, H1N1, read-out: EC90 H1N1, concentration required to inhibit 90% virus yield
  EC90: 90 ± 12 µM
[5]
  CC50 at 48 h: > 2000 µM
H1N1 [6]; [27]
  EC50: 73 ± 8 µM
H1N1 [6]
  SI H1N1, ratio CC50/EC50: >27

## CCc1ncc(-c2c[nH]c3ccccc23)o1 [Pimprinethine]
[7]; [28]
  CC50 at 48 h: 750 ± 30 µM
[8]
  CC50: 550 ± 103 µM
HSV-1 [1]
  EC90 HSV-1, concentration required to inhibit 90% virus yield: — (—, less than 50% or 90% inhibition)
EV71 [9]
  EC50: 35 ± 4 µM
ADV-7 [10]
  EC90: 63 ± 5 µM
EV71 [11]
  release of EV71 from RD cells: unaffected
HSV-1 [2]
  SI HSV-1, ratio CC50/EC50: 6
  EC50: 45 ± 3 µM
  inhibition of HSV-1-induced plaque formation: approximately 80%
CVB3 [12]
  EC50: 22 ± 4 µM
  SI CVB3, ratio CC50/EC50: 12
[13]; [29]
  CC50 at 48 h: 835 ± 20 µM
H1N1 [4]
  EC90 H1N1, concentration required to inhibit 90% virus yield: — (—, less than 50% or 90% inhibition)
[14]
  CC50: 406 ± 48 µM
EV71 [15]
  virus titer reduction vs untreated cells: approximately 5.0 log
  viability at 80 µM: ~100%
EV71 [16]
  virus titers of EV71 mixture with vs without compound (virucidal activity): No significant difference
EV71 [17]
  SI (selectivity index), ratio CC50/EC50: 24
[18]
  CC50: 656 ± 82 µM
EV71 [19]
  anti-EV71 inhibition at excessive virus inoculum: Inhibition was eliminated
[5]
  CC50 at 48 h: 577 ± 73 µM
[20]
  CC50: 233 ± 36 µM
H1N1 [6]
  inhibition of H1N1 infection: negligible measurable inhibition
H1N1 [6]; [27]
  EC50 H1N1: — (—, less than 50% or 90% inhibition)
EV71 [21]; [30]
  reduction in progeny virus titers relative to virus control: 3.0 log
EV71 [21]
  EC90: 42 ± 3 µM
EV71 [22]
  virus titer during virus attachment (adsorption): no significant decrease
CVB3 [23]
  EC90: 58 ± 9 µM
[3]; [31]
  CC50 at 48 h: 256 ± 49 µM
ADV-7 [24]
  SI ADV-7, ratio CC50/EC50: 23
  EC50: 33 ± 6 µM

## NC(=O)c1ncn([C@@H]2O[C@H](CO)[C@@H](O)[C@H]2O)n1 [Ribavirin, reference compound]
[7]
  CC50 at 48 h: 1520 ± 243 µM
EV71 [9]
  EC50: 102 ± 68 µM
ADV-7 [10]
  EC90: 132 ± 22 µM
CVB3 [12]
  EC50: 90 ± 10 µM
  SI CVB3, ratio CC50/EC50: 15
[13]
  CC50 at 48 h: 1230 ± 355 µM
EV71 [17]
  SI (selectivity index), ratio CC50/EC50: 12
EV71 [21]; 160 μM, 100 TCID50 EV71, RD cells, 10 h
  reduction in progeny virus titers: ~2.0 log
EV71 [21]
  EC90: 136 ± 49 µM
EV71 [22]
  virus titer during virus attachment (adsorption): no significant decrease
CVB3 [23]
  EC90: 103 ± 17 µM
[3]
  CC50 at 48 h: 1310 ± 385 µM
ADV-7 [24]
  SI ADV-7, ratio CC50/EC50: 13
  EC50: 116 ± 19 µM

## N[C@@H]1C[C@H]1c1ccccc1 [TCP]
CVB3 [25]
  antiviral activity against CVB3: inactive
EV71 [26]
  antiviral activity against EV71: inactive

## CCCCc1ncc(-c2c[nH]c3ccccc23)o1 [WS-30581 B]
[7]; [28]
  CC50 at 48 h: 354 ± 14 µM
HSV-1 [1]
  EC90 HSV-1, concentration required to inhibit 90% virus yield: — (—, less than 50% or 90% inhibition)
EV71 [9]
  EC50: 11 ± 3 µM
ADV-7 [10]
  EC90: 48 ± 6 µM
EV71 [11]
  release of EV71 from RD cells: unaffected
HSV-1 [2]
  SI HSV-1, ratio CC50/EC50: 6
  EC50: 14 ± 4 µM
  inhibition of HSV-1-induced plaque formation: approximately 80%
CVB3 [12]
  EC50: 12 ± 2 µM
  SI CVB3, ratio CC50/EC50: 7
[13]; [29]
  CC50 at 48 h: 229 ± 10 µM
H1N1 [4]
  EC90 H1N1, concentration required to inhibit 90% virus yield: — (—, less than 50% or 90% inhibition)
EV71 [15]
  virus titer reduction vs untreated cells: approximately 5.0 log
  viability at 80 µM: ~100%
EV71 [16]
  virus titers of EV71 mixture with vs without compound (virucidal activity): No significant difference
EV71 [17]
  SI (selectivity index), ratio CC50/EC50: 21
[18]
  CC50: 267 ± 31 µM
EV71 [19]
  anti-EV71 inhibition at excessive virus inoculum: Inhibition was eliminated
[5]
  CC50 at 48 h: 215 ± 28 µM
H1N1 [6]; [27]
  EC50: 24 ± 5 µM
H1N1 [6]
  SI H1N1, ratio CC50/EC50: 9
  inhibition of H1N1 infection: less than 70%
EV71 [21]; [30]
  reduction in progeny virus titers relative to virus control: 3.0 log
EV71 [21]
  EC90: 18 ± 2 µM
EV71 [22]
  virus titer during virus attachment (adsorption): no significant decrease
CVB3 [23]
  EC90: 42 ± 6 µM
[3]; [31]
  CC50 at 48 h: 83 ± 6 µM
ADV-7 [24]
  SI ADV-7, ratio CC50/EC50: 24
  EC50: 15 ± 2 µM

## C#CCN(C)Cc1ccccc1 [pargyline]
CVB3 [25]
  antiviral activity against CVB3: inactive
EV71 [26]
  antiviral activity against EV71: inactive

Reference: publication PMC4253628, “Antiviral effects against EV71 of pimprinine and its derivatives isolated from Streptomyces sp” (Virology Journal, 2014)
